In patent US20160222014A1, “COMPOUNDS FOR REGULATING FAK AND/OR SRC PATHWAYS” (ASANA BIOSCIENCES, LLC, priority 2013, published 2016) one finds IC50 and EC50 data, which are given here for 31 compounds.

The target in one test is JAK2 (Homo sapiens, UniProt O60674). In words: JAK2 biochemical potency. The note with it: read-out: JAK2 HTRF IC50.
Another test has as its target T1, AURKB (Aurora B) enzyme (Homo sapiens, UniProt Q96GD4).
T1 construct: purchased Invitrogen PVR 130
In words: Aurora B HTRF assay. Format: biochemical. To be noted: read-out: AuroraB IC50. Summed up:
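Enzyme (5 nM final) and ULight-labelled PLK Ser137 peptide (50 nM) reacted 1 h at room temperature; a 30 μM final component was also present. Detection used EDTA-containing buffer with europium anti-phospho-PLK(Ser137) antibody at 2 nM, 1 h, then time-resolved FRET readout.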
(In general: In TR-FRET formats the signal depends on donor and acceptor labels being close together.)

In the next test the target is T2, recombinant human FAK1 (Homo sapiens, UniProt Q05397).
T2 construct: fused on or other part: N-terminal 6xHis tag
T2 sequence (Q05397 422-680 limits assumed): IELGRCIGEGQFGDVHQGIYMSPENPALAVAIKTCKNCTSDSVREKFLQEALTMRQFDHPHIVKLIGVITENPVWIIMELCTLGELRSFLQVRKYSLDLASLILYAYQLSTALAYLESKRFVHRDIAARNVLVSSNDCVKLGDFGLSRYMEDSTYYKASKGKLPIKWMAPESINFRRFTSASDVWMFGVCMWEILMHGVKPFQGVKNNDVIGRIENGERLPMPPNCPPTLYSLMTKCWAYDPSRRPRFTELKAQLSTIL
In words: FAK1 HTRF assay. Format: biochemical. Summed up: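 IC50 values derive from HTRF % inhibition (ratio 665/620 nm, Eu–anti-phosphotyrosine 0.1 nM, SA-APC 12 nM). The kinase step ran 45 min at room temperature, pairing 10 nM His-FAK1(692–end) from baculovirus with 0.5 μM gastrin Tyr87 biotin-peptide and a reagent at 10 μM final, pH 7.4. Compound dilutions began at 10 μM.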

Test [1] concerns the target T3, FAK phosphorylated at Y397 in HEK-FAK cell line overexpressing human FL FAK protein (Homo sapiens, UniProt Q05397).
T3 construct: expressed in transfected cells
In words: Cell based assay, Phospho-FAK ELISA. To be noted: HEK stb; read-out: pFAK EC50 (μM) HEK stb. The source says: D. Cell Based Assay-Phospho-FAK ELISA
The DuoSet IC ELISA (R&D systems—Cat no. DYC4528-5) provided the basic components required for the development of sandwich ELISAs to measure Focal Adhesion Kinase 1 (FAK) phosphorylated at Y397 in cell lysates. An immobilized capture antibody specific for FAK, also known as PTK2, binds both phosphorylated and unphosphorylated protein. After washing away unbound material, a biotinylated detection antibody specific for FAK phosphorylated at Y397 was used to detect only phosphorylated protein, utilizing a standard Streptavidin-HRP format. The cell line used for the assay was a stable HEK-FAK cell line overexpressing human FL FAK protein, which was generated as follows.
HEK293 cells (ATCC® CRL-1573™, 10801 University Boulevard, Manassas, Va. 20110 USA) were seeded in four 100 mm petri dishes at a seeding density of 1.5×10^6 cells per plate and incubated overnight at 37° C. in a 5% CO2 incubator. The transfection mix was prepared as follows. (A) 10 μg DNA (pCDNA4 V5/HisA vector containing Zeocin as mammalian selection marker, procured from Invitrogen) with the full length human FAK gene represented by the nucleotide sequence provided in NCBI Reference Sequence: NM_153831.3, SEQ ID NO: 1:
was added to 1.5 mL Opti-MEM® (reduced serum media is a modification of Eagle's Minimum Essential Media, buffered with HEPES and sodium bicarbonate and supplemented with hypoxanthine, thymidine, sodium pyruvate, L-glutamine, trace elements and growth factors commercially available from Invitrogen) and incubated at room temperature for 5 minutes. (B) 30 μL Lipofectamine™ Transfection reagent (Life Technologies) was added to 1.5 mL Opti-MEM® and incubated at room temperature for 5 minutes. Following this, (a) and (b) were mixed and incubated at room temperature for 20 minutes. Media was removed from cells and washed with 1× phosphate buffered saline (PBS) and the transfection mix prepared above was mixed with 3 mL of Opti-MEM®, added to the cells and incubated at 37° C. Four hours later, 6 mL of 20% Dulbecco's Modified Eagle Medium (DMEM) was added to the plates and incubated at 37° C. in a 5% CO2 incubator. Approximately 72 hours after transfection, cells were subcultured at various dilutions with fresh medium containing 0.8 mg/mL Zeocin™ (Life Technologies). Cells were replenished with selective medium every 3-4 days until cell foci were identified in the FAK transfected cells and most of the cells died in the control plates. Cells from these foci were grown in the presence of selective media and the expression of FAK was confirmed by Western Blotting. Over expression of FAK in the stably-transfected cells was quantified in the cell-based ELISA assay described below by determining the signal window, with a signal window of 2 or above considered to be robust). The HEK-FAK stable cell line thus was maintained in 0.8 mg/mL Zeocin™ (Life Technologies) and used in cell-based ELISA to assess autophosphorylation of FAK.
(i) Materials • 1. Phospho-FAK (Y397)-Capture Antibody • 2. Phospho-FAK (Y397)-Detection Antibody • 3. Streptavidin-HRP • 4. Cells used for the assay-HEK over expressing human FL FAK protein
(ii) Solutions • PBS—137 mM NaCl, 2.7 mM KCl, 8.1 mM Na2HPO4, 1.5 mM KH2PO4, pH 7.2-7.4, 0.2 μm filtered. • Wash Buffer—0.05% Tween20™ in PBS, pH 7.2-7.4 • Block Buffer—1% BSA, 0.05% NaN3, in PBS, pH 7.2-7.4. • IC Diluent #1-1% BSA in PBS, pH 7.2-7.4, 0.2 μm filtered. • IC Diluent #8-1 mM EDTA, 0.5% Triton™ X-100, 5 mM NaF in PBS, pH 7.2-7.4. IC Diluent #8 was also the base buffer for IC Diluent #3, IC Diluent #7, and Lysis. • Buffer #6. […]
In general terms: In an ELISA, binding on a coated surface is turned into a signal by an enzyme label.

A further test deals with T4, Recombinant Src enzyme (Homo sapiens, UniProt P12931).
T4 construct: purchased Millipore 14-326; host or cells: Sf21 insect cells
T4 sequence (P12931 whole entry): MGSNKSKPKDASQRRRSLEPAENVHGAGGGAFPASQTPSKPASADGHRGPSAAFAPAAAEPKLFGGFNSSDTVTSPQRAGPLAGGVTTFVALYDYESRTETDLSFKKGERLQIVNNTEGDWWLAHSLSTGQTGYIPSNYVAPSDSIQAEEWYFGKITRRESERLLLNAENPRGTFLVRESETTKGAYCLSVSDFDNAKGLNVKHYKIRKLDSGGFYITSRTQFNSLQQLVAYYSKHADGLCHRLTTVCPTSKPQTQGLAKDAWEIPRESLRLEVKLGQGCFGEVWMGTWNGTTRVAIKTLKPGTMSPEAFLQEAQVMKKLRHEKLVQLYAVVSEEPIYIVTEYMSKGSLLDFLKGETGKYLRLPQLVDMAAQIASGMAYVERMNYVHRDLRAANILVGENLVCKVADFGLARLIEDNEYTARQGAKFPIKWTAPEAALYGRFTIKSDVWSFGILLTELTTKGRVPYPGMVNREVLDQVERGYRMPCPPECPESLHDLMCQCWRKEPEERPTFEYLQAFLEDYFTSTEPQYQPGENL
Briefly: Src HTRF assay. Format: biochemical. Summed up:
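Run as for the FAK HTRF assay (same buffer, supplements, compound preparation and procedure), with dasatinib included. Reaction contained 0.5 μM biotin-tagged Tyk2 synthetic peptide, 5 nM Src made in Sf21 cells, and a pH7.4-buffer-prepared component at 10 μM final.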

T3 sequence (Q05397 whole entry): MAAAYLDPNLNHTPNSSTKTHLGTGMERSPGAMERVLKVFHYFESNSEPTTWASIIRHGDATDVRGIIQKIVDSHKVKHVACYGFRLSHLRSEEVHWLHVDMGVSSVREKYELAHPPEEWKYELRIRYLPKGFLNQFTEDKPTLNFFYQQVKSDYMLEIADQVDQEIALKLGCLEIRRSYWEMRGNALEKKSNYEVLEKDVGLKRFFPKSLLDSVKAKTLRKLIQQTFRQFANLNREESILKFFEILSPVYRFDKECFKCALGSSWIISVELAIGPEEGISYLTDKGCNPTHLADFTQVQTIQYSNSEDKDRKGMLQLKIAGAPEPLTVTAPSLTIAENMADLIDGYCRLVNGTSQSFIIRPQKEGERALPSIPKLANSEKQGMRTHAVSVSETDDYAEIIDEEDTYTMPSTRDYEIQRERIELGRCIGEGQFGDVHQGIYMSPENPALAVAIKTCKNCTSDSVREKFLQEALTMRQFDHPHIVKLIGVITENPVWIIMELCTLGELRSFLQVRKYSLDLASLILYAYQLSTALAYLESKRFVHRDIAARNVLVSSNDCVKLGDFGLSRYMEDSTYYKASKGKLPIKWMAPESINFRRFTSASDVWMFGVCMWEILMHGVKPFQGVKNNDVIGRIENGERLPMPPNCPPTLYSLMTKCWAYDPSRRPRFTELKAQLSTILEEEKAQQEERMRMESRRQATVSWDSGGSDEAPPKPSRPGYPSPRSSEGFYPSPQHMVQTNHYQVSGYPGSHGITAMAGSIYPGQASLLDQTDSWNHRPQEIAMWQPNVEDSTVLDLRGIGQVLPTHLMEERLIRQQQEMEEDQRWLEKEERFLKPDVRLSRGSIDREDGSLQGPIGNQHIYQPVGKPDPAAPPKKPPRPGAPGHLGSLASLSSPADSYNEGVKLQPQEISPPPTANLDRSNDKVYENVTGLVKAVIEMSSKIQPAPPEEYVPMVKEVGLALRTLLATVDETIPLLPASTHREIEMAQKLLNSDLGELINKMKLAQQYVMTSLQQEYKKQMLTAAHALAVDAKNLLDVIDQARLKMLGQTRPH
JAK2, sequence (O60674 whole entry, species assumed): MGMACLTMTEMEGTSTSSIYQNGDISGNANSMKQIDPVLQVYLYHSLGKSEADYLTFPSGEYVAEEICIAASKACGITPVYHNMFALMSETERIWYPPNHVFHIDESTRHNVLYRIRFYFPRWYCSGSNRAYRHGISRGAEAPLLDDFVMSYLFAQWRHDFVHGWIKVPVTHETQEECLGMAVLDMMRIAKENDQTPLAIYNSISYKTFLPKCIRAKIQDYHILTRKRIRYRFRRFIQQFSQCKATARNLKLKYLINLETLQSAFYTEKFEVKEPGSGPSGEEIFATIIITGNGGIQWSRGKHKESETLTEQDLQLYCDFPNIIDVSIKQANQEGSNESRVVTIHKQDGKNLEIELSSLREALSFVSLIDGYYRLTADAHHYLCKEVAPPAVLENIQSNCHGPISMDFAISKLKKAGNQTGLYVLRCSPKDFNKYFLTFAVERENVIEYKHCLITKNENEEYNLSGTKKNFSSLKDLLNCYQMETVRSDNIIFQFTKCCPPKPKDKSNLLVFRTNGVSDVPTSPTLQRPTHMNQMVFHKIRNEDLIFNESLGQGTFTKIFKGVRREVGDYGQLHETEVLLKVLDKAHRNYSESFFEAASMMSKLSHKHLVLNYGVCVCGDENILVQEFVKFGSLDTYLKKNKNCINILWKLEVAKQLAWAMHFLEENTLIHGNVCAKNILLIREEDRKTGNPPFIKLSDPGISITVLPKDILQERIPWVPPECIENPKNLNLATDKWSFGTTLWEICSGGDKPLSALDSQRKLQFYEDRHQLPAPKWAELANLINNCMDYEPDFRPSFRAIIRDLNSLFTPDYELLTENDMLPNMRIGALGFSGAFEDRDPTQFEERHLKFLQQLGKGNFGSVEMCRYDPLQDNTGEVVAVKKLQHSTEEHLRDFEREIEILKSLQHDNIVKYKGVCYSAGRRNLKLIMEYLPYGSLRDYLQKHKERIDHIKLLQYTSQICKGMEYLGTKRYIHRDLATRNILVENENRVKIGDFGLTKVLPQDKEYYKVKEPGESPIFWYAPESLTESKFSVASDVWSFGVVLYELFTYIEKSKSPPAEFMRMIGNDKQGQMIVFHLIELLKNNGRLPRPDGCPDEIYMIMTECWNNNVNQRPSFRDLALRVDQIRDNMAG
T1 sequence (Q96GD4 whole entry): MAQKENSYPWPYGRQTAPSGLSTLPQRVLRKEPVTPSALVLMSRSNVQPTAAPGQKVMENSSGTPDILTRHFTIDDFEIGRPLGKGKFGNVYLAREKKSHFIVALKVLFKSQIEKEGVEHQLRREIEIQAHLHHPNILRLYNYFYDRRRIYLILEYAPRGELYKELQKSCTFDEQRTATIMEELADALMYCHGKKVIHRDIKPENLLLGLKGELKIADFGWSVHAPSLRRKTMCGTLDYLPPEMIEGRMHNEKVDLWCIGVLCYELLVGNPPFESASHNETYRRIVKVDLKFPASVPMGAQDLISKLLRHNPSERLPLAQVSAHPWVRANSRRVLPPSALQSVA

The IC50 is the concentration that inhibits the measured activity by half. Regarding `CN(c1ncccc1Cn1ccc2cnc(Nc3ccc4c(c3)CC(=O)N4)nc21)S(C)(=O)=O` [Example 304], the IC50 on JAK2, at AURKB (Aurora B) enzyme and at recombinant human FAK1 was < 20 nM throughout.
`CN(C)C1CCN(c2ccc(Nc3ncc4ccn(Cc5ccccc5N(C)S(C)(=O)=O)c4n3)cc2)CC1` [Example 468]: the IC50 at JAK2, on AURKB (Aurora B) enzyme and at recombinant human FAK1 was < 20 nM each time.
For `CN(c1ccccc1Cn1ccc2cnc(Nc3ccc4c(c3)CCC(=O)N4)nc21)S(C)(=O)=O` [Example 103], the half-inhibitory concentration (IC50) at JAK2 and on recombinant human FAK1 was < 20 nM in each case.
As for `CN(c1ncccc1Cn1ccc2cnc(Nc3cccc(N4CCOCC4)c3)nc21)S(C)(=O)=O` [Example 99], the concentration for half-maximal inhibition (IC50) on JAK2 was < 20 nM.
Turning to `CN1CCN(c2ccc(Nc3ncc4ccn(Cc5cccnc5N(C)S(C)(=O)=O)c4n3)cc2)CC1` [Example 101], the 50% inhibitory concentration (IC50) on JAK2 is < 20 nM.
As to `CN(C)C1CCN(c2ccc(Nc3ncc4c(n3)N(S(=O)(=O)c3cccc5cccnc35)CC4(C)C)cc2)CC1` [Example 500], the IC50 on JAK2 was > 1000 nM; on recombinant human FAK1, < 20 nM.
Take `CC(=O)Nc1ccc(Nc2ncc3ccn(Cc4cccnc4N(C)S(C)(=O)=O)c3n2)cc1` [Example 35]: the 50% inhibitory concentration (IC50) on JAK2 and on AURKB (Aurora B) enzyme was < 20 nM each time.
The term EC50 denotes the concentration needed to bring the measured effect to its halfway point. With `Cc1ccc2cccc(S(=O)(=O)n3ccc4cnc(Nc5ccc(N6CCNCC6)cc5)cc43)c2n1` [Example 369], in test [1], the 50% effective concentration (EC50) is > 1 µM. The half-inhibitory concentration (IC50) at Recombinant Src enzyme was > 1000 nM; at AURKB (Aurora B) enzyme it was < 20 nM.
In the case of `N#Cc1ccccc1S(=O)(=O)n1ccc2cnc(Nc3ccc(N4CCNCC4)c(F)c3)nc21` [Example 245], in test [1], the EC50 is > 1 µM. Besides, the IC50 on Recombinant Src enzyme and on AURKB (Aurora B) enzyme was < 20 nM in each case.
For the compound `CN(c1ncccc1Cn1ccc2cnc(Nc3cccc(S(N)(=O)=O)c3)nc21)S(C)(=O)=O` [Example 165], the IC50 at JAK2 and on AURKB (Aurora B) enzyme was < 20 nM throughout.
Take `C[C@@H]1CN(c2ccc(Nc3ncc4ccn(Cc5cccnc5N(C)S(C)(=O)=O)c4n3)cc2)CCN1` [Example 475]: the IC50 at JAK2 and on AURKB (Aurora B) enzyme was < 20 nM each time.
As to `CN(c1ncccc1Cn1ccc2cnc(Nc3ccc4c(c3)NCCO4)nc21)S(C)(=O)=O` [Example 215], in test [1], the half-maximal effective concentration (EC50) was > 1 µM. The IC50 at Recombinant Src enzyme and on recombinant human FAK1 was < 20 nM throughout.
`COc1ccccc1S(=O)(=O)n1ncc2cnc(Nc3ccc(N4CCNCC4)cc3)cc21` [Example 342]: the EC50 in test [1] was > 1 µM. Further, the half-inhibitory concentration (IC50) is > 1000 nM at Recombinant Src enzyme and < 20 nM at AURKB (Aurora B) enzyme.
In the case of `CC1(C)CN(c2ccccn2)c2nc(Nc3ccc4c(c3)CC(=O)N4)ncc21` [Example 740], in test [1], the concentration giving a half-maximal response (EC50) was > 1 µM. The half-maximal inhibitory concentration (IC50) on Recombinant Src enzyme and at AURKB (Aurora B) enzyme was > 1000 nM throughout.
On to `C[C@H]1CN(c2ccc(Nc3ncc4ccn(Cc5cccnc5N(C)S(C)(=O)=O)c4n3)cc2)CCN1` [Example 471, N-Methyl-N-(3-{2-[4-((S)-3-methyl-piperazin-1-yl)-phenylamino]-pyrrolo[2,3-d]pyrimidin-7-ylmethyl}-pyridin-2-yl)-methanesulfonamide], for which the IC50 on JAK2 is < 20 nM.
`CC(=O)Nc1ccc(Nc2ncc3ccn(Cc4ccccc4OC(F)F)c3n2)cc1` [Example 95]: the IC50 at JAK2 was < 20 nM.
`Cc1ccnc2c(S(=O)(=O)n3ccc4cnc(Nc5ccc(N6CCNCC6)cc5)nc43)cccc12` [Example 398]: the concentration for a half-maximal effect (EC50) in test [1] was > 1 µM. In addition, the concentration for half-maximal inhibition (IC50) on Recombinant Src enzyme was > 1000 nM; on AURKB (Aurora B) enzyme, < 20 nM.
For `COc1cc(N2CCN(CCO)CC2)ccc1Nc1cc2c(ccn2S(=O)(=O)c2cccc3cccnc23)cn1` [Example 386], in test [1], the concentration giving a half-maximal response (EC50) is < 0.02 µM. For the same compound, the IC50 at Recombinant Src enzyme is > 1000 nM; at recombinant human FAK1, < 20 nM.
Turning to `COc1cc(N2CCC(O)CC2)ccc1Nc1cc2c(ccn2S(=O)(=O)c2cccc3cccnc23)cn1` [Example 400], the half-maximal effective concentration (EC50) in test [1] is < 0.02 µM. Besides, the IC50 at Recombinant Src enzyme is > 1000 nM; on recombinant human FAK1 it was < 20 nM.
In the case of `O=S(=O)(c1cccc2cccnc12)n1ncc2cnc(Nc3ccc(N4CCNCC4)cc3)cc21` [Example 210], the IC50 on JAK2 was > 1000 nM; at AURKB (Aurora B) enzyme, < 20 nM.
On to `CN(C)CCOc1cccc(Nc2ncc3ccn(Cc4cccnc4N(C)S(C)(=O)=O)c3n2)c1` [Example 91], for which the half-inhibitory concentration (IC50) at JAK2 and at AURKB (Aurora B) enzyme was < 20 nM in each case.
As to `CN(c1ncccc1Cn1ccc2cnc(Nc3ccc4[nH]cc(C5=CCNCC5)c4c3)nc21)S(C)(=O)=O` [Example 152], the concentration giving a half-maximal response (EC50) in test [1] is > 1 µM. Moreover, the figures for the concentration for half-maximal inhibition (IC50) at Recombinant Src enzyme and on recombinant human FAK1 were > 1000 nM and < 20 nM, respectively.
Consider `O=S(=O)(c1ccccc1Cl)n1ccc2cnc(Nc3ccc(N4CCNCC4)cc3)nc21` [Example 232], for which, in test [1], the 50% effective concentration (EC50) was > 1 µM. The IC50 at Recombinant Src enzyme and at AURKB (Aurora B) enzyme was < 20 nM in each case.
As to `CN(c1ncccc1Cn1ccc2cnc(Nc3ccc4ncsc4c3)nc21)S(C)(=O)=O` [Example 123], the IC50 at JAK2 and on AURKB (Aurora B) enzyme was < 20 nM each time.
For `CN(c1ncccc1Cn1ccc2cnc(Nc3ccc(N4CCNCC4)cc3)nc21)S(C)(=O)=O` [Example 116], the IC50 on JAK2 and on AURKB (Aurora B) enzyme was < 20 nM each time.
Turning to `N#Cc1ccccc1S(=O)(=O)n1ccc2cnc(Nc3ccc4c(c3)CC(=O)N4)cc21` [Example 514], in test [1], the half-maximal effective concentration (EC50) was > 1 µM. The IC50 on Recombinant Src enzyme is > 1000 nM; at recombinant human FAK1 it was < 20 nM.
Consider `C[C@@H]1CN(c2ccc(Nc3ncc4ccn(Cc5ccccc5NS(C)(=O)=O)c4n3)cc2)CCN1` [Example 547], for which the EC50 in test [1] was > 1 µM. The half-maximal inhibitory concentration (IC50) at Recombinant Src enzyme and at AURKB (Aurora B) enzyme was < 20 nM each time.
As to `CN(C)c1ccc(Nc2ncc3ccn(Cc4cccnc4N(C)S(C)(=O)=O)c3n2)cc1` [Example 105], the IC50 at JAK2 and on AURKB (Aurora B) enzyme was < 20 nM in each case.
Take `O=S(=O)(c1cccc2cnccc12)n1ccc2cnc(Nc3ccc(N4CCNCC4)cc3)nc21` [Example 235]: the concentration for half-maximal inhibition (IC50) on JAK2 and on AURKB (Aurora B) enzyme was < 20 nM each time.
`CC(=O)Nc1cccc(Nc2ncc3ccn(Cc4ccccc4N(C)S(C)(=O)=O)c3n2)c1` [Example 100]: the half-maximal inhibitory concentration (IC50) at JAK2 and on recombinant human FAK1 was < 20 nM each time.
Regarding `C[C@H]1CNCCN1c1ccc(Nc2ncc3ccn(Cc4ccccc4N(C)S(C)(=O)=O)c3n2)cc1` [Example 481], the concentration for half-maximal inhibition (IC50) at JAK2 and at AURKB (Aurora B) enzyme was < 20 nM each time.
